The results in this text go back to patent publication US20250199015A1, “CYCLIN-DEPENDENT KINASE 2 INHIBITORS FOR MEDICAL TREATMENT” (INCYCLIX BIO, LLC, priority 2022, published 2025).

The target in one series is T1, human OAT3 (Homo sapiens, UniProt Q8TCC7).
T1 construct: expressed in transfected cells; host or cells: HEK293
T1 sequence (Q8TCC7 1-542): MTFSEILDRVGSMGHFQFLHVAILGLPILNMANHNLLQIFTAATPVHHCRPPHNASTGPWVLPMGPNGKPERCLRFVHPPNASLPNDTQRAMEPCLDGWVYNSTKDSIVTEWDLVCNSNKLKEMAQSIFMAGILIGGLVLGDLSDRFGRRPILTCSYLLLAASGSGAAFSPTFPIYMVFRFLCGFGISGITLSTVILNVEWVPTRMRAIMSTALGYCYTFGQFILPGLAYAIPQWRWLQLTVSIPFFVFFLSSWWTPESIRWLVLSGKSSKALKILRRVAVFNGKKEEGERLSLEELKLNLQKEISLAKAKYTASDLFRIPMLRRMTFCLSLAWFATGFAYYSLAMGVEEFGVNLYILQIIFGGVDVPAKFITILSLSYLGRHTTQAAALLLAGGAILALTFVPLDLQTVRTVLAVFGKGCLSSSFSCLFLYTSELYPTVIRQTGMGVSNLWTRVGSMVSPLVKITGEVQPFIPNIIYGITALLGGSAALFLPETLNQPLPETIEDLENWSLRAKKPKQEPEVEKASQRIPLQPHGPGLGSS
Nature of the series: SLC transporter inhibition in HEK293 cells. In kind it is in vitro ADME.

Series [1] concerns T47D parental and therapy-resistant (LYR, FR, LYFR, PDR) cells. Nature of the series: Proliferation (DAPI cell count, 2 doubling times) in parental and therapy-resistant cells. The note with it: with the corresponding resistant drug fixed. In kind it is cell-based, human. On the procedure: (§1) The doubling time of each cell line was calculated and plates were removed from incubator after 2 doubling times. Cells were fixed and stained with DAPI and imaged with automated counting of cell number.

Series [2] concerns MCF7 parental and therapy-resistant (LYR, FR, LYFR, PDR) cells. The description is as above. The settings on record: with the corresponding resistant drug fixed. In kind it is cell-based, human. The protocol: as §1
Series [3] deals with multidrug resistance mutation (MDR) 1 (Homo sapiens, UniProt P08183). The series can be described thus: Transporter inhibition. In kind it is in vitro ADME.
For series [4], the system named is MMTV-rtTA/tetO-HER2 tumors. Nature of the series: Abemaciclib-resistant HER2-overexpressing breast cancer mouse model. The class given is in vivo, mice. The note with it: Compound I 50 mg/kg BID + abemaciclib 50 mg/kg BID, out to day 38. The protocol:
Breast cancer model mice overexpressing HER2 (MMTV-rtTA/tetO-HER2) were treated with abemaciclib until resistance to treatment was observed. […] The test agents were delivered at 5 mL/kg by oral gavage.

Another series relates to γ-H2AX in H526 cells. Nature of the series: γ-H2AX flow cytometry. The class given is cell-based, human. On the procedure:
The H526 human lung carcinoma cell line was grown in RPMI-1640/1× Glutamax/10% fetal bovine serum and was plated at 200,000 cells/well in Corning 6 cm tissue culture treated plates. Cells were incubated at 37° C. for 24 hours prior to addition of the first treatment. […] Cells were treated to 24 or 48 hours post-initial treatment, with 10 μM EdU added 1 hour prior to collection. Cells were collected and fixed in 1% paraformaldehyde. Cells were incubated with pacific blue azide dye as described by Thermo Scientific. Cells were then incubated with antibody against γ-H2AX at a ratio of 1:50 before incubation with FarRed dye and RNase. Cells were analyzed on a BD Celesta and data compiled using FloJo and GraphPad.
The H526 human lung carcinoma cell line was grown in RPMI-1640/1× Glutamax/10% fetal bovine serum and was plated at 200,000 cells/well in Corning 6 cm tissue culture treated plates. Cells were incubated at 37° C. for 24 hours prior to addition of the first treatment. […] Cells were treated to 24 hours post-initial treatment, with 10 μM EdU added at hour 23 (FIG. 28A). Cells were collected and fixed in 1% paraformaldehyde. Cells were incubated with pacific blue azide dye as described by Thermo Scientific. […] Cells were analyzed on a BD Celesta and data compiled using FloJo and GraphPad.
Background: Flow cytometry measures light scatter and fluorescence of single cells or particles in a stream.

Series [5] relates to T47D parental and therapy-resistant cells. Nature of the series: Cell cycle by BrdU flow cytometry in therapy-resistant cells. The settings on record: Compound I with abemaciclib (LYR) or abemaciclib and fulvestrant (LYFR), 7 days. The class given is cell-based, human. The protocol: The therapy resistant cells were previously incubated with abemaciclib, fulvestrant, and/or palbociclib for prolonged periods to the point of developing drug resistance. Cells were plated in Corning 6 well tissue culture treated plates. Cells were treated for 7 days. Media was spiked with 10 μM BrdU prior to collection. Cells were washed in PBS, trypsinized, collected and centrifuged at 300 RCF for 5 mins. Cells were resuspended in cell culture media and transferred into a 96 well V-bottom plate with roughly 300,000 cells per well. Cells were then stained using the Near-IR Fixable Viability Stain (Invitrogen Cat. L34976) for 20 mins at room temperature, protected from light. Cells were fixed and permeabilized using eBioscience FoxP3/Transcription Factor Staining Buffer Set (Cat. 00-5523-00). DNA was denatured using 2N HCl+0.5% (v/v) Triton X-100 for 30 mins room temperature, agitating every 5-10 mins. The acid was neutralized using 0.1M Na2B4O7·10H2O (pH 8.5) followed by 0.5% BSA in PBS. Cells were then stained with BrdU antibody (Clone 3D4, BioLegend Cat. 364118) for 1 hour at room temperature. Prior to acquisition on the BD A3 Symphony, DNA was stained for 30 minutes using FxCycle Violet ReadyFlow Reagent.
Cell staining was then conducted to monitor cellular proliferation and perform cell cycle analysis of these therapy-resistant cells. […] Similarly, abemaciclib- and fulvestrant-resistant (LYFR) cells administered abemaciclib and fulvestrant were not substantially arrested in the G1 phase (FIG. 147H).

The next series has as its system γ-H2AX in Hs68 cells. The series can be described thus: γ-H2AX flow cytometry in normal fibroblasts. The class given is cell-based, human. The note with it: 300 nM, alone or in combination with cisplatin, 24 hours. On the procedure: The Hs68 Normal foreskin fibroblast cell line was grown in DMEM-high glucose/1× Glutamax/10% fetal bovine serum and was plated at 30,000 cells/well in Corning 6 well tissue culture treated plates. Cells were incubated at 37° C. for 24 hours prior to addition of the first treatment. […] Cells were treated to 24 hours post-initial treatment, with 10 μM EdU added at hour 23. Cells were collected and fixed in 1% paraformaldehyde. Cells were incubated with pacific blue azide dye as described by Thermo Scientific. Cells were then incubated with antibody against γ-H2AX at a ratio of 1:50 before incubation with FarRed dye and RNase. Cells were analyzed on a BD Celesta and data compiled using FloJo and GraphPad (FIG. 6).

Series [6] can be described thus: Electrocardiogram evaluations in 28-day repeat-dose toxicity study. The class given is in vivo, dogs. The note with it: any dose level. The text has this: Safety pharmacology studies described more fully below included a functional observational battery (FOB) testing in a 28-day repeat-dose toxicity study in rats, electrocardiogram (ECG) evaluations in a 28-day repeat-dose toxicity study in dogs, and a single-dose respiratory safety pharmacology study in rats.

Each structure is given as a SMILES string. pIC50: −log10 of the molar value. “Also recorded” adds a separate entry of the source. Where two headings read alike, the source gives them in different places.

As usually defined, the pIC50 is the IC50 on a negative log10 scale, so that one unit is a factor of ten. As to `NS(=O)(=O)c1ccc(Nc2ncc3cc4n(c3n2)C2(CCCCC2)C(=O)NN4)cc1` [Compound I], at human OAT3 (OAT3, HEK293 cells), the “Maximum Percent inhibition” value amounted to 86%. The negative logarithm of the IC50 (pIC50) at human OAT3 (OAT3, HEK293 cells, read-out: IC50) is 5.40; on human OAT3 (read-out: OAT3 IC50) it was 5.40. Also, the “cellular proliferation in therapy-resistant cells” value is “low, nanomolar IC50 values; also recorded: dose-dependent decrease in cellular proliferation” in series [1] and “low, nanomolar IC50 values; also recorded: dose-dependent decrease in cellular proliferation” in [2]. In addition, the MDR1 inhibition result in [3] is “did not inhibit”. Besides, the tumor growth result in [4] is given as “substantially reduced tumor growth relative to either agent administered alone”. Further, in the series with γ-H2AX in H526 cells (300 nM Compound I + 300 nM cisplatin), the “γ-H2AX signal, combination with cisplatin” value is on record as “roughly double the signal”. For the same compound, the “γ-H2AX signal, Compound I alone” value with γ-H2AX in H526 cells (30 to 1000 nM, 24 or 48 hours) is recorded as “increased yH2AX starting at 100 nM”. The “cell cycle arrest of therapy-resistant cells” value in [5] is “arrested in G1; also recorded: arrested therapy-resistant LYR cells”. Moreover, the “percent of γ-H2AX-positive cells” value with γ-H2AX in Hs68 cells was “lower percent of γ-H2AX-positive cells compared with control”. In series [6], the ECGs result is “did not affect; also recorded: within normal limits”.
